The record followed here is paper PMC8034821 (The Journal of Venomous Animals and Toxins Including …, 2021).

What is called Km is the substrate concentration at which the rate is half of its maximum.

For this test, the system named is krait (Bungarus sindanus) venom acetylcholinesterase (AChE). The test is described as follows: Ellman (DTNB) assay, Lineweaver-Burk plot. It counts as biochemical. Conditions: no inhibitor; 50 mM phosphate pH 7.4; 25 or 37 °C (both printed); crude venom. Background: Ellman's reagent forms a yellow product with free thiols.

Consider `CC(=O)SCC[N+](C)(C)C` [AcSCh], for which the Michaelis constant (Km) turned out to be 74.1 µM.
